{"source": "patent US20240246941A1", "about": "“SUBSTITUTED 4-(3-AMINOPROP-1-YL)AMINOQUINOLINE ANALOGS AS MODULATORS OF MELANOMA-ASSOCIATED ANTIGEN 11 UBIQUITIN LIGASE” (ST. JUDE CHILDREN'S RESEARCH HOSPITAL, INC., priority 2020, published 2024)", "key": {"[1]": {"biological_target": "interaction between GST-MAGEA11 MHD and FAM-PCF11_4 peptide (MAGE-A11:PCF11) (Homo sapiens (Human), UniProt P43364)", "sequence (P43364 218-429)": "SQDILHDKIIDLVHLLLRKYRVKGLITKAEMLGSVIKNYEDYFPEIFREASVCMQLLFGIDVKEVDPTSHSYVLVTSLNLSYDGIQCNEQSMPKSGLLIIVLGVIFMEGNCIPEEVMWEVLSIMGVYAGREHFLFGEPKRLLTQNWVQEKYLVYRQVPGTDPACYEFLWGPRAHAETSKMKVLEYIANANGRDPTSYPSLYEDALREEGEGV", "assay": "TR-FRET dose response competition assay for disruption of MAGE-A11:PCF11 binding", "how_it_was_run": "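Competition TR-FRET at room temperature in 50 mM Tris pH 7.5, 20 mM MgCl2, 0.1 mg/ml BSA, 1 mM DTT: final 5 nM GST-MAGEA11 MHD, 5 nM Tb-anti-GST, 200 nM FAM-PCF11_4, 90 min. Ratio 520/490 nm converted to % inhibition; IC50 from sigmoidal fit.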"}, "[2]": {"assay": "Solubility assay (μSOL Evolution, UV)", "format": "physicochemical", "details": "aqueous buffer, kinetic from dmso stock; 18 h at RT in buffer", "procedure": "Solubility assays were carried out on a Biomek FX lab automation workstation (Beckman Coulter, Inc., Fullerton, CA) using SOL Evolution software (pION Inc., Woburn, MA). The detailed method is described as follows. 10 μl of 10 mM compound stock (in DMSO) was added to 190 μl 1-propanol to make a reference stock plate. 5 μl from this reference stock plate were mixed with 70 μl 1-propanol and 75 μl citrate phosphate-buffered saline (PBS; isotonic) to make the reference plate, and the UV spectrum (250-500 nm) of the reference plate was read. 6 μl of 10 mM test compound stock was added to 594 μl buffer in a 96-well storage plate and mixed. The storage plate was sealed and incubated at RT for 18 h. The suspension was then filtered through a 96-well filter plate (pION Inc., Woburn, MA). 75 μl of filtrate was mixed with 75 μl 1-propanol to make the sample plate, and the UV spectrum of the sample plate was read. Calculations were carried out with μSOL Evolution software based on the area under the curve (AUC) of the UV spectrum of the sample and reference plates. All compounds were tested in triplicate."}, "[3]": {"assay": "High throughput Caco-2 permeability", "format": "in vitro ADME", "details": "human, 10 μmol/l, 2 h, 37° C.", "procedure": "High throughput Caco-2 permeability was performed in the TranswellR 0.4 μm polycarbonate membrane 96-well system with modified methods. Caco-2 cells were maintained at 37° C. in a humidified incubator with an atmosphere of 5% CO2. The cells were cultured in 75 cm^2 flasks with Dulbecco's Modified Eagle's Medium (DMEM) containing 10% (v/v) FBS, 1% (v/v) non-essential amino acids (NEAA), 100 units/ml of penicillin, and 100 μg/ml of streptomycin. The Caco-2 cells were seeded onto inserts at a density of 2×10^4 cells/insert separately. The medium in the wells was exchanged each other day, and the trans epithelial electrical resistance (TEER) value was measured using an epithelial voltohm meter (Millipore, Billerica, Massachusetts). […] For transport experiments, each cultured monolayer on the 96-well plate was washed twice with a transport buffer (HBSS containing 25 mM HEPES, pH 7.4). The permeability assay was initiated by the addition of each compound solution (10 μmol/l) into inserts (apical side, A) or receivers (basolateral side, B). The Caco-2 cell monolayers were incubated for 2 h at 37° C. Fractions were collected from receivers (if apical to basal permeability) or inserts (if basal to apical permeability), and concentrations were assessed by UPLC/MS (Waters; Milford, MA). All compounds were tested in triplicates. The A→B (or B→A) apparent permeability coefficients (Papp) of each compound were calculated using the equation, Papp=dQ/dt×1/AC0, where dQ/dt equals the flux of a drug across the monolayer, A equals the total insert well surface area, and C0 is the initial concentration of substrate in the donor compartment. The efflux ratio was determined by dividing the Papp in the B-A direction by the Papp in the A-B direction."}, "[4]": {"details": "Dose response TR-FRET screening of nine scaffold groups against MAGE-A11:PCF11, read-out: consensus IC50"}, "[5]": {"details": "Table 5, dose response TR-FRET screening of 59 quinoline compounds against MAGE-A11:PCF11, read-out: TR-FRET IC50"}, "[6]": {"details": "Table 8, representative compounds, read-out: TR-FRET IC50"}, "[7]": {"details": "Table 6, 4-aminoquinoline compounds, read-out: TR-FRET, IC50"}, "[8]": {"details": "Caco-2, pH 7.4, apical to basolateral, read-out: Caco-2 permeability, A/B"}, "[9]": {"details": "Caco-2, pH 7.4, basolateral to apical, read-out: Caco-2 permeability, B/A"}}, "note": "pIC50: −log10 of the molar value. Read-outs that look alike come from different tables or passages of the source."}
{"compound": "NC1=C(Nc2ccc(Cl)cc2)C(=O)c2ccccc2C1=O", "note": "[SJ000562630-1]", "values": [{"measurement": "pIC50", "setting": "[1]; [4]", "result": 4.27}]}
{"compound": "Cc1cc(C)cc(NC2=C(N)C(=O)c3ccccc3C2=O)c1", "note": "[SJ000562641-1]", "values": [{"measurement": "pIC50", "setting": "[1]; [4]", "result": 4.26}]}
{"compound": "COc1cc(NCc2ccc3nc(N)nc(N)c3c2C)cc(OC)c1OC", "note": "[SJ000574313-7]", "values": [{"measurement": "pIC50", "setting": "[1]; [4]", "result": 5.02}]}
{"compound": "CCCN(CCCNc1ccnc2cc(C(F)(F)F)ccc12)Cc1ccc2[nH]ccc2c1", "note": "[SJ000575171-1]", "values": [{"measurement": "pIC50", "setting": "[1]; [5]", "result": 4.48}]}
{"compound": "Clc1ccc2c(NCCCNCc3ccc[nH]3)ccnc2c1", "note": "[SJ000575192-1]", "values": [{"measurement": "pIC50", "setting": "[1]; [5]", "result": 4.64}]}
{"compound": "O=C1c2ccccc2NC(c2ccc(F)cc2F)N1CCCN1CCOCC1", "note": "(centres unmarked) [SJ000795275-1]", "values": [{"measurement": "pIC50", "setting": "[1]; [4]", "result": 4.17}]}
{"compound": "O=C1c2ccccc2NC(c2ccc(F)c(F)c2)N1CCCN1CCOCC1", "note": "(centres unmarked) [SJ000803757-1]", "values": [{"measurement": "pIC50", "setting": "[1]; [4]", "result": 4.23}]}
{"compound": "CCCOc1ccc(C2Nc3ccccc3C(=O)N2CCCN2CCOCC2)cc1", "note": "(centres unmarked) [SJ000803758-1]", "values": [{"measurement": "pIC50", "setting": "[1]; [4]", "result": 4.14}]}
{"compound": "CCOc1ccc(C2Nc3ccccc3C(=O)N2CCCN2CCOCC2)cc1", "note": "(centres unmarked) [SJ000803759-1]", "values": [{"measurement": "pIC50", "setting": "[1]; [4]", "result": 4.17}]}
{"compound": "COc1ccc(C2Nc3ccccc3C(=O)N2CCCN2CCOCC2)cc1OC(F)F", "note": "(centres unmarked) [SJ000803760-1]", "values": [{"measurement": "pIC50", "setting": "[1]; [4]", "result": 4.14}]}
{"compound": "Cc1cc(C)c(C2Nc3ccccc3C(=O)N2CCCN2CCOCC2)cc1C", "note": "(centres unmarked) [SJ000803761-1]", "values": [{"measurement": "pIC50", "setting": "[1]; [4]", "result": 4.21}]}
{"compound": "CSc1ccc(C2Nc3ccccc3C(=O)N2CCCN2CCOCC2)cc1", "note": "(centres unmarked) [SJ000803762-1]", "values": [{"measurement": "pIC50", "setting": "[1]; [4]", "result": 4.15}]}
{"compound": "COc1ccc2cc(C3Nc4ccccc4C(=O)N3CCCN3CCOCC3)ccc2c1", "note": "(centres unmarked) [SJ000803763-1]", "values": [{"measurement": "pIC50", "setting": "[1]; [4]", "result": 4.17}]}
{"compound": "O=C1c2ccccc2NC(c2ccc(F)c(Br)c2)N1CCCN1CCOCC1", "note": "(centres unmarked) [SJ000803764-1]", "values": [{"measurement": "pIC50", "setting": "[1]; [4]", "result": 4.17}]}
{"compound": "CN(C)c1ccc(C2Nc3ccccc3C(=O)N2CCCN2CCOCC2)cc1", "note": "(centres unmarked) [SJ000803767-1]", "values": [{"measurement": "pIC50", "setting": "[1]; [4]", "result": 4.15}]}
{"compound": "Cc1ccc(C2Nc3ccccc3C(=O)N2CCCN2CCOCC2)cc1", "note": "(centres unmarked) [SJ000803768-1]", "values": [{"measurement": "pIC50", "setting": "[1]; [4]", "result": 4.18}]}
{"compound": "CCCn1c(=O)c2nc(-c3ccccc3)[nH]c2n(CCC)c1=O", "note": "[SJ000832251-1]", "values": [{"measurement": "pIC50", "setting": "[1]; [4]", "result": 4.14}]}
{"compound": "C=CCn1c(=O)c2c(nc(-c3ccccc3)n2C)n(C)c1=O", "note": "[SJ000832270-1]", "values": [{"measurement": "pIC50", "setting": "[1]; [4]", "result": 4.07}]}
{"compound": "Fc1ccc2c(NCCCNCc3ccc(OC(F)(F)F)cc3)ccnc2c1", "note": "[SJ000834150]", "values": [{"measurement": "pIC50", "setting": "[1]; [6]", "result": "< 4.17"}]}
{"compound": "CCc1ccc(OCc2ccccc2C(=O)Nc2ccc3nc(C)cc(N)c3c2)cc1", "note": "[SJ000855285]", "values": [{"measurement": "pIC50", "setting": "[1]; [6]", "result": 5.03}]}
{"compound": "Brc1ccc2c(NCCCNCc3ccc4[nH]ccc4c3)ccnc2c1", "note": "[SJ001008065-01, N^1-((1H-Indol-5-yl)methyl)-N^3-(7-bromoquinolin-4-yl)propane-1,3-diamine]", "values": [{"measurement": "pIC50", "setting": "[1]; [7]", "result": 6.21}, {"measurement": "solubility at 18 h", "setting": "[2]", "result": 57.1, "unit": "µM"}, {"measurement": "Papp at 2 h, 10 μmol/l", "setting": "[3]; [8]", "result": 18.3, "unit": "×10⁻⁶ cm/s"}, {"measurement": "Papp at 2 h, 10 μmol/l", "setting": "[3]; [9]", "result": 19.3, "unit": "×10⁻⁶ cm/s"}]}
{"compound": "Cn1ccc2cc(CNCCCNc3ccnc4cc(C(F)(F)F)ccc34)ccc21", "note": "[SJ001008067-01, N^1-((1-Methyl-1H-indol-5-yl)methyl)-N^3-(7-(trifluoromethyl)quinolin-4-yl)propane-1,3-diamine]", "values": [{"measurement": "pIC50", "setting": "[1]; [7]", "result": 5.94}, {"measurement": "solubility at 18 h", "setting": "[2]", "result": 19.4, "unit": "µM"}, {"measurement": "Papp at 2 h, 10 μmol/l", "setting": "[3]; [8]", "result": 21.4, "unit": "×10⁻⁶ cm/s"}, {"measurement": "Papp at 2 h, 10 μmol/l", "setting": "[3]; [9]", "result": 12.3, "unit": "×10⁻⁶ cm/s"}]}
{"compound": "CC(C)(C)c1ccc(-c2ccc3c(NCCCNCc4ccc5[nH]ccc5c4)ccnc3c2)cc1", "note": "[SJ001008068-01, N^1-((1H-Indol-5-yl)methyl)-N^3-(7-(4-(tert-butyl)phenyl)quinolin-4-yl)propane-1,3-diamine]", "values": [{"measurement": "pIC50", "setting": "[1]; [7]", "result": 6.89}, {"measurement": "solubility at 18 h", "setting": "[2]", "result": 0.67, "unit": "µM"}, {"measurement": "Papp at 2 h, 10 μmol/l", "setting": "[3]; [8]", "result": 0.368, "unit": "×10⁻⁶ cm/s"}, {"measurement": "Papp at 2 h, 10 μmol/l", "setting": "[3]; [9]", "result": 1.54, "unit": "×10⁻⁶ cm/s"}]}
